Results from patent publication US20250378953A1, “ORGAN DIGITAL TWIN SYSTEMS AND METHODS FOR CREATING AND USING SUCH SYSTEMS” (Yale University, priority 2022, published 2025).
Like-named read-outs stand apart in the source and are kept apart here.

Test system: porcine kidney
Excerpt: For the ex vivo normothermic perfusion of kidneys, data pertaining to the hemodynamics of the kidney were collected and monitored: kidney mass, urine output, arterial flow, arterial pressure, pump speed, hematocrit, and arterial oxygen saturation. To accomplish this, ZP-50N digital force gauges by Baoshishan were used to measure kidney mass and urine output; a Medtronic Bio-console device to measure flow, pressure, and pump speed; and a Medtronic Bio-trend device to measure hematocrit and oxygen saturation.
Data collection from these sensors was standardized at a rate of 0.2 Hz (approximately a data point every five seconds) and integrated via an open-source software written in Python. […] The act of collecting data from each sensor simultaneously presented a unique challenge in that a typical computer program is sequential in its execution, meaning that data collection from one sensor should not be able to occur until collection from another sensor is finished. Furthermore, the runtime complexity of the code block associated with each sensor meant that data collection from one sensor could potentially interfere with the collection from another, and vice-versa. To circumvent these issues, the code blocks for each sensor were run in separate threads using the Python threading library. This allowed each code block to be executed simultaneously in parallel (as opposed to sequentially in series), meaning data collection from one sensor was independent of data collection from all other sensors. After the data was extracted, the code block for each sensor transformed the data string by removing superfluous characters and converting the pertinent data into a float format. To upload the transformed data to the Azure cloud database the sys, platform, and pyodbc libraries were used to communicate with the edge device and establish a database connection using an SQL driver.
The “Blood gas data upload” feature allows one to manually input data collected from perfusate analysis assays. For our perfusion experiment, CG8+ and Renal Function Panel cartridges were used with iStat and Piccolo devices, respectively; however, the software can easily be modified to accommodate other perfusate assays.
Histamine was administered at two different time-points during the perfusion.

NCCc1c[nH]cn1 [histamine]
arterial flow after histamine (40 mg histamine on the arterial side at 240 minutes of perfusion): Flow immediately stopped | arterial flow after histamine (100 mg histamine on the arterial side at 90 minutes of perfusion): immediate halt of flow | time until flow normalized (after 40 mg histamine at 240 minutes, pump RPM slowly increased to 1900, no heparin): 30 min | time until flow increased and arterial pressure normalized (after 100 mg histamine at 90 min, heparin at 120 minute, pump RPM 2000): ≤ 60 min | arterial pressure while flow slowly returned (after 100 mg histamine at 90 min, 20k units heparin added at 120 minute, pump RPM increased to 2000, starting arterial pressure 15 mmHg): 40-60 mmHg | kidney weight after flow and pressures normalized (after first histamine administration, weight before histamine approximately 0.26 Kg): 0.27 to 0.28 kg | kidney weight after histamine (manual recordings) (after histamine at 90 minutes, weight before approximately 0.26 Kg): approximately 0.24 Kg | arterial pressure immediately after histamine (arterial administration of histamine): immediately increased | urine production (qualitative observation) (first histamine administration at 90 minutes): initiate after the first histamine administration
